Experimental data from US4818770A, “Prevention of a plant disease by specific inhibition of fungal polyamine biosynthesis” (priority 1986, dated 1989).

Test system: U. phaseoli
Experiment: Bean rust severity after DFMO and polyamines alone or combined
Assay type: in vivo, Uromyces phaseoli
Conditions: for Lesions per cm^2 / Lesions per leaf / Lesions per leaf, percent of control: postinoculation

SMILES	reduction of number of lesions (1 mM Put alone)	Lesions per cm^2 (polyamine alone 0.01 mM) [per cm^2]	Lesions per leaf (polyamine alone 0.01 mM) [per leaf]	Lesions per leaf, percent of control (polyamine alone 0.01 mM)	Lesions per cm^2 (polyamine alone 0.1 mM) [per cm^2]	Lesions per leaf (polyamine alone 0.1 mM) [per leaf]	Lesions per leaf, percent of control (polyamine alone 0.1 mM)	Lesions per cm^2 (polyamine alone 1.0 mM) [per cm^2]	Lesions per leaf (polyamine alone 1.0 mM) [per leaf]	Lesions per leaf, percent of control (polyamine alone 1.0 mM)
NCCCCN [Put, putrescine]	about one-third	57 ± 2	4013 ± 264	98% of control	54 ± 5	3189 ± 478	78% of control	44 ± 9	2698 ± 260	66% of control
NCCCCNCCCN [Spd, spermidine]		56 ± 5	3209 ± 360	78% of control	58 ± 6	3416 ± 457	83% of control	50 ± 10	3926 ± 358	96% of control
